The values that follow come from patent US20240400518A1, “SOS1 INHIBITOR AND USE THEREOF” (KANAPH THERAPEUTICS INC., priority 2021, published 2024).

The target in assay [1] is T1, SOS1 (Homo sapiens, UniProt Q07889).
T1 construct: adding equal amounts of HIS—SOS1cat (160 nM; Cytoskeleton, US); His (N); purchased Cytoskeleton, US
T1 sequence (Q07889 564-1049 limits assumed): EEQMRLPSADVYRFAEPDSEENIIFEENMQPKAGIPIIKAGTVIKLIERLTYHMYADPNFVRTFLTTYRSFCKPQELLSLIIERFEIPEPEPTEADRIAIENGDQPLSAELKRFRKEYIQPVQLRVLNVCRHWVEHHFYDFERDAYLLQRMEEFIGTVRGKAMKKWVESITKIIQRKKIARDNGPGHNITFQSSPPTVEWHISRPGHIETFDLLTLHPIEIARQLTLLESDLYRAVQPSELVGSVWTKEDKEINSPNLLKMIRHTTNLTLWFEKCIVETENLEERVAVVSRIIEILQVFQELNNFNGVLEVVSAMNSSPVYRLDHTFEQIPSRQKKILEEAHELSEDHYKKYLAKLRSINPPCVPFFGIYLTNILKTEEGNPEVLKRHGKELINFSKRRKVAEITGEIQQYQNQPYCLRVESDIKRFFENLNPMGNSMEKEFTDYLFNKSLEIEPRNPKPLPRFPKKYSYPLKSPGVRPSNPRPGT
The assay is described as follows: SOS-catalyzed nucleotide exchange assay (HTRF, SOS1-mediated GTP loading of KRAS G12D). The assay is classed as biochemical. The note with it: GST-KRAS G12D, HIS-SOS1cat, IC50 class. The procedure:
SOS1 activity was measured by SOS1-mediated GTP loading quantification of KRAS^G12D. GTP loaded KRAS^G12D was detected by HTRF (Homogeneous Time Resolved Fluorescence) using anti-GST terbium (Cisbio, France) as a donor and a fluorescence GTP analogue (EDA-GTP-DY-647P1, [DY-647P1 labeled 2′/3′-O-(2-aminoethyl-carbamoyl)guanosine-5′-triphosphate (Jena bioscience, Germany)]) as an acceptor.
Assay buffer was composed of 10 mM HEPES pH 7.4, 150 mM NaCl, 5 mM MgCl2, 1 mM DTT, 0.05% BSA Fraction V pH 7.0 (Sigma) and 0.0025% (v/v) Igepal (Sigma). KRAS^G12D working solution was prepared by adding equal amounts of GST-KRAS^G12D (100 nM) and anti-GST-terbium (2 nM; Cisbio, France) to the assay buffer and culturing on ice for 10 minutes. SOS1cat working solution was prepared by adding equal amounts of HIS—SOS1cat (160 nM; Cytoskeleton, US) and EDA-GTP-DY-647P1 (200 nM; Jena bioscience, Germany) to the assay buffer. Control solution was prepared by adding equal volumes of EDA-GTP-DY-647P1 and the assay buffer for normalization control to exclude GEF-independent GTP loading and background signals. In order to induce a reaction, 5 μL of the SOS1cat working solution or the control solution was injected into each well. 5 μL of a compound having various concentrations from 128 pM to 10 μM was added to wells containing the SOS1cat working solution and incubated at room temperature for 10 minutes to bind to SOS1.
10 μL of the KRAS^G12D solution was added to each well and incubated for 30 minutes at room temperature while shaking. HTRF was measured using a Thermo Varioskan (excitation 334 nm, emission 665 nm). The IC50 of each inhibitor was analyzed using Graphad Prism.

Assay [2] concerns the target T2, KRAS^G12C::SOS1 (Homo sapiens, UniProt Q07889).
T2 construct: purchased CISBIO, FRANCE 64KRASG12PEH
T2 sequence (Q07889 1-1333): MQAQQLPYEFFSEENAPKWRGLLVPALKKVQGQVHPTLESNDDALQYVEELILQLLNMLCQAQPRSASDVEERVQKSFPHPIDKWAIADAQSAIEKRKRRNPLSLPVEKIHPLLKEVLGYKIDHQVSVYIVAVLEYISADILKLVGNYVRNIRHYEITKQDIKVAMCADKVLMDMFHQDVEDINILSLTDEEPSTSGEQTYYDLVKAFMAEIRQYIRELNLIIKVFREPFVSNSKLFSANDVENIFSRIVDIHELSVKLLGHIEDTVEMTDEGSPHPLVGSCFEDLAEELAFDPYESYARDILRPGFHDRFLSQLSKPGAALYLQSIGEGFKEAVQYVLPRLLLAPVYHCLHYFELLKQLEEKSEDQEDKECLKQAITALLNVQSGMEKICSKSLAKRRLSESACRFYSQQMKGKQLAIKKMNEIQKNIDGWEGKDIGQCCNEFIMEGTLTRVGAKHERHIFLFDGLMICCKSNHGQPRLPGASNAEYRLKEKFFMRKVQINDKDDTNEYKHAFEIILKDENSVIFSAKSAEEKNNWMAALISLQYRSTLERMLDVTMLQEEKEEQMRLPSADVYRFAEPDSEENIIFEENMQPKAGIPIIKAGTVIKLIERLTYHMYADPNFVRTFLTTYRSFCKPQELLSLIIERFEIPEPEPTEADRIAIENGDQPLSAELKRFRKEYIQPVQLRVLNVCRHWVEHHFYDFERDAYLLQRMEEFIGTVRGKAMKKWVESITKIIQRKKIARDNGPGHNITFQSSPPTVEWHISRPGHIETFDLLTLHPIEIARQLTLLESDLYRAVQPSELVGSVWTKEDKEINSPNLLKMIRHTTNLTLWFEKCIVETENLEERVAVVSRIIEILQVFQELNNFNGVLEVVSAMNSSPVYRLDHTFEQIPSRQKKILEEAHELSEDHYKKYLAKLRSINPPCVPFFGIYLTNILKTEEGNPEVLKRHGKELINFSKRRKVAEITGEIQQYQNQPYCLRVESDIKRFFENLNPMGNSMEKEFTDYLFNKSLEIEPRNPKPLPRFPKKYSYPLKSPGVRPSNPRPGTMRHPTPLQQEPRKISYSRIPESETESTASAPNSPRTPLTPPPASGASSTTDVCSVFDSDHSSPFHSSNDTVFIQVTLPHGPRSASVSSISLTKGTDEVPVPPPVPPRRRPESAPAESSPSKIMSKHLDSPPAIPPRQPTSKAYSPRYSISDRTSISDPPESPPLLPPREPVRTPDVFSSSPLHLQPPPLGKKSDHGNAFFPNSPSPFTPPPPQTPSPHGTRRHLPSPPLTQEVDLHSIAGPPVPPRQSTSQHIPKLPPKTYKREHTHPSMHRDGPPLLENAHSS
Briefly: KRAS G12C::SOS1 protein-protein interaction (PPI) inhibition assay (HTRF binding kit). The note with it: max inhibitor concentration 3 μM, three replicates, IC50 class. The procedure:
Protein-protein interaction between SOS1 and KRAS^G12C was detected using KRAS G12C/SOS1 binding kit from CISBIO (64KRASG12PEH, CISBIO, FRANCE) according to the manufacturer's assay method. Briefly, the maximum concentration of an inhibitor sample was set to be 3 μM, and the inhibitor sample was diluted 7 times by 1/3, and samples having a total of 8 concentrations were prepared. In HTRF (Homogeneous Time-Resolved Fluorescence) exclusive 96-well low-volume white plate (66PL96005, CISBIO, FRANCE), 2 μL of an inhibitor sample prepared for each concentration, 5 μL of a mixed solution of Tag1 labeled KRAS^G12C protein and GTP diluted with the dilution solution provided by the manufacturer, and 5 μL of Tag2 labeled SOS1 protein were mixed, and added with 8 μL of a diluted solution where anti-Tag1 KRAS^G12CXL665 (HTRF acceptor) labeled antibody and anti-Tag2 SOS1 Terbium cryptate (HTRF donor) labeled antibody were mixed in an equal ratio and cultured at room temperature for 2 hours.

Usually IC50 stands for the concentration that inhibits the measured activity by half. Low values mean inhibition by little substance, high ones a need for much substance. In turn, `C[C@@H](NC(=O)c1ccc(=O)n(-c2ccc(-c3ccccc3)cc2)n1)c1cc(N)cc(C(F)(F)F)c1` [Example 24] yielded a concentration for half-maximal inhibition (IC50) in assay [1] of 1 to 10 µM.
Turning to `C[C@@H](NC(=O)c1ccc(=O)n(-c2cccc(C(C)(C)O)c2)n1)c1cc(N)cc(C(F)(F)F)c1` [Example 171], the IC50 in assay [2] is below 1000 nM.
The compound `C[C@@H](NC(=O)c1ccc(=O)n(-c2ccncc2F)n1)c1cc(N)cc(C(F)(F)F)c1` [Example 191] had an IC50 in assay [2] below 1000 nM.
In assay [2], `C[C@@H](NC(=O)c1ccc(=O)n(-c2cccc(-c3ccccc3)c2)n1)c1cc(N)cc(C(F)(F)F)c1` [Example 212] showed a half-maximal inhibitory concentration (IC50) of 1000 to 10000 nM.
For `Cc1c([C@@H](C)NC(=O)c2ccc(=O)n(-c3ccccc3F)n2)cc(N)cc1C(F)(F)F` [Example 244, N-[(1R)-1-[5-amino-2-methyl-3-(trifluoromethyl)phenyl]ethyl]-1-(2-fluorophenyl)-6-oxo-pyridazine-3-carboxamide], the IC50 in assay [2] was below 1000 nM.
In assay [2], `C[C@@H](NC(=O)c1ccc(=O)n(-c2cccc(C(=O)O)c2)n1)c1cc(N)cc(C(F)(F)F)c1` [Example 249, 3-(3-{[(1R)-1-[3-amino-5-(trifluoromethyl)phenyl]ethyl]carbamoyl}-6-oxo-1,6-dihydropyridazin-1-yl)benzoic acid] showed an IC50 below 1000 nM.
As for `C[C@@H](NC(=O)c1ccc(=O)n(-c2ccccc2F)n1)c1ccc(Br)s1` [Example 265, N-[(1R)-1-(5-bromo-2-thienyl)ethyl]-1-(2-fluorophenyl)-6-oxo-pyridazine-3-carboxamide], in assay [2], the IC50 was below 1000 nM.
Compound `CNCc1ccc(Cl)cc1-c1ccc([C@@H](C)NC(=O)c2ccc(=O)n(-c3cccnc3)c2)s1` [Example 284] had an IC50 in assay [2] below 1000 nM.
Take `C[C@@H](NC(=O)c1ccc(=O)n(-c2cccc(-c3cnoc3)c2)n1)c1cc(N)cc(C(F)(F)F)c1` [Example 322, N-[(1R)-1-[3-amino-5-(trifluoromethyl)phenyl]ethyl]-1-(3-isoxazol-4-ylphenyl)-6-oxo-pyridazine-3-carboxamide]: in assay [2], the 50% inhibitory concentration (IC50) was below 1000 nM.
Compound `C[C@@H](NC(=O)c1ccc(=O)n(-c2cccc(-c3cnnn3C)c2)n1)c1cccc(C(F)(F)CO)c1F` [Example 370, N-[(1R)-1-[3-(1,1-difluoro-2-hydroxy-ethyl)-2-fluoro-phenyl]ethyl]-1-[3-(3-methyltriazol-4-yl)phenyl]-6-oxo-pyridazine-3-carboxamide] yielded a 50% inhibitory concentration (IC50) in assay [2] below 1000 nM.
`C[C@@H](NC(=O)c1ccc(=O)n(-c2cc(-c3cnnn3C)ccc2F)n1)c1cc(N)cc(C(F)(F)F)c1` [Example 371, N-[(1R)-1-[3-amino-5-(trifluoromethyl)phenyl]ethyl]-1-[2-fluoro-5-(3-methyltriazol-4-yl)phenyl]-6-oxo-pyridazine-3-carboxamide] displayed an IC50 in assay [2] below 1000 nM.
In turn, `Cc1cnnn1-c1cccc(-n2cc(C(=O)N[C@H](C)c3cc(N)cc(C(F)(F)F)c3)ccc2=O)c1` [Example 377, N-[(1R)-1-[3-amino-5-(trifluoromethyl)phenyl]ethyl]-1-[3-(5-methyltriazol-1-yl)phenyl]-6-oxo-pyridine-3-carboxamide] registered a 50% inhibitory concentration (IC50) in assay [2] below 1000 nM.
In turn, `Cc1cnnn1-c1cccc(-n2nc(C(=O)N[C@H](C)c3cc(N)cc(C(F)(F)F)c3)ccc2=O)c1` [Example 378, N-[(1R)-1-[3-amino-5-(trifluoromethyl)phenyl]ethyl]-1-[3-(5-methyltriazol-1-yl)phenyl]-6-oxo-pyridazine-3-carboxamide] registered a half-maximal inhibitory concentration (IC50) in assay [2] below 1000 nM.
`C[C@@H](NC(=O)c1ccc(=O)n(-c2ccc(F)c(-c3cnnn3C)c2)n1)c1cc(N)cc(C(F)(F)F)c1` [Example 389, N-[(1R)-1-[3-amino-5-(trifluoromethyl)phenyl]ethyl]-1-[4-fluoro-3-(3-methyltriazol-4-yl)phenyl]-6-oxo-pyridazine-3-carboxamide] had a half-maximal inhibitory concentration (IC50) in assay [2] below 1000 nM.
Consider `C[C@@H](NC(=O)c1ccc(=O)n(-c2ccc(F)c(-c3cnnn3C)c2)n1)c1cccc(C(F)(F)CO)c1F` [Example 390], for which, in assay [2], the half-inhibitory concentration (IC50) was below 1000 nM.
In assay [2], `C[C@@H](NC(=O)c1ccc(=O)n(-c2cc(F)cc(-c3cnnn3C)c2)n1)c1cc(N)cc(C(F)(F)F)c1` [Example 391, N-[(1R)-1-[3-amino-5-(trifluoromethyl)phenyl]ethyl]-1-[3-fluoro-5-(3-methyltriazol-4-yl)phenyl]-6-oxo-pyridazine-3-carboxamide] showed an IC50 below 1000 nM.
Consider `C[C@@H](NC(=O)c1ccc(=O)n(-c2cncc(-c3cnnn3C)c2)n1)c1cc(N)cc(C(F)(F)F)c1` [Example 392, N-[(1R)-1-[3-amino-5-(trifluoromethyl)phenyl]ethyl]-1-[5-(3-methyltriazol-4-yl)-3-pyridyl]-6-oxo-pyridazine-3-carboxamide], for which the IC50 in assay [2] was below 1000 nM.
With `[2H]C([2H])([2H])n1nncc1-c1cccc(-n2nc(C(=O)N[C@H](C)c3cccc(C(F)(F)CO)c3F)ccc2=O)c1` [Example 393, N-[(1R)-1-[3-(1,1-difluoro-2-hydroxy-ethyl)-2-fluoro-phenyl]ethyl]-6-oxo-1-[3-[3-(trideuteriomethyl)triazol-4-yl]phenyl]pyridazine-3-carboxamide], the concentration for half-maximal inhibition (IC50) in assay [2] was below 1000 nM.
